Results on two compounds are retold here after patent US20230212180A1, “SUBSTITUTED PYRAZINE COMPOUND, PHARMACEUTICAL COMPOSITION COMPRISING SAME, AND USE THEREOF” (Sichuan Kelun-Biotech Biopharmaceutical Co., Ltd., priority 2020, published 2023).

Data set [1] can be described thus: Pharmacokinetic (PK) studies in SD rat. In kind it is in vivo. The settings on record: rat, male SD rats, plasma. On the procedure: Test Example 6: Pharmacokinetic (PK) Studies in SD Rat
(§1) The compound of Example 12 and Control Compound 2 were administered to male SD rats by intravenous injection (IV) and gavage (PO) respectively to estimate the pharmacokinetic properties. Dosing amounts for IV and PO routes were 1 mg/kg and 5 mg/kg, respectively. The solvent for IV route was 5% DMSO+5% Solutol (polyoxyl 15-hydroxystearate)+90% Saline (physiological saline), and the solvent for PO route was 0.5% MC (sodium methylcellulose). Blood was collected at various time points after IV and PO administration. The blood was anticoagulated using EDTA.K2, and centrifuged to obtain plasma samples. The plasma samples were preserved at −80° C.
The plasma samples were subjected to protein precipitation and then to the LC-MS/MS analysis. WinNonlin 6.3 software was used to calculate the pharmacokinetic parameters by non-compartmental model, and the results were listed in Table 6 below.

A short description of data set [2]: Pharmacokinetic (PK) studies in beagle dog. Format: in vivo. The settings on record: dog, male beagle dogs, plasma. On the procedure:
Test Example 8: Pharmacokinetic (PK) Studies in Beagle Dog
as §1, with “Example 12,” for “Example 12 and”, “Compound 1, Control Compound 2, and TNO-155” for “Compound 2”, “male beagle dogs” for “male SD rats”, “were 0.5” for “were 1”, “and 2.5 mg/kg.” for “and 5 mg/kg, respectively.”, “DMSO+5% Solutol+90% Saline,” for “DMSO+5% Solutol (polyoxyl 15-hydroxystearate)+90% Saline (physiological saline),”
The plasma samples were subjected to protein precipitation and then to the LC-MS/MS analysis. WinNonlin 6.3 software was used to calculate the pharmacokinetic parameters by non-compartmental model, and the results were listed in Table 8 below.

Data set [3] in a line: Pharmacokinetic (PK) studies in Balb/c mouse. The following applies: female, Balb/c, mouse, in vivo. In kind it is in vivo. On the procedure: Test Example 7: Pharmacokinetic (PK) Studies in Balb/c Mouse
The compound of Example 12, Control Compound 1, Control Compound 2, and TNO-155 were administered to female Balb/c mice by intravenous injection (IV) and gavage (PO) respectively to estimate the pharmacokinetic properties. Dosing amounts for IV and PO routes were 1 mg/kg and 10 mg/kg, respectively. The solvent for IV route was 5% DMSO+5% Solutol+90% Saline, and the solvent for PO route was 0.5% MC (sodium methylcellulose). Blood was collected at various time points after IV and PO administration. The blood from the test groups of the compound of Example 12, Control Compound 1, and Control Compound 2 was anticoagulated using EDTA.K2 and preserved at −80° C. The blood from the test groups of TNO-155 was anticoagulated using EDTA.K2 and centrifuged to obtain plasma samples, and the plasma samples were preserved at −80° C.
The blood or plasma samples were subjected to protein precipitation and then to the LC-MS/MS analysis. WinNonlin 6.3 software was used to calculate the pharmacokinetic parameters by non-compartmental model, and the results were listed in Table 7 below.

The target of data set [4] is T1, CYP3A4 (Homo sapiens, UniProt P08684).
T1 construct: purchased Promega
Briefly: Biochemical assay for CYP enzyme inhibition, P450-Glo CYP3A4 Screening System. The settings on record: estimated from percentage inhibition; read-out: IC50 (μM) CYP3A4. Format: in vitro ADME. On the procedure: (§2) Test Example 5: Biochemical Assay for CYP Enzyme (Cytochrome P450) Inhibition
P450-Glo™ CYP3A4 Screening System, (Promega).
(§3) BMG PHERAstar FS Luminescent.
(§4) The experiments were carried out separately according to the instructions of the kits. The steps were as follows:
3.3. Inhibition Against CYP3A4:
Test group: The test compounds at different concentrations were added into a microplate, and Luciferin-IPA ([…]), K3PO4 (100 mM), and CYP3A4 (2 nM) were added into each well, and pre-incubated at room temperature for 10 min. Thereafter, an NADPH regeneration system was added. The mixture was reacted at room temperature for 30 min. Finally, an equal volume of detection buffer was added and incubated at room temperature for 20 min, followed by chemiluminescence detection.
(§5) Negative control group: The experimental method for the negative control group was the same as that for the test group, except that the test compound was not added.
Blank control group: The experimental method for the blank control group was the same as that for the test group, except that the test compound was not added and that CYP3A4 was replaced with CYP3A4 Membrance (2 nM).
(§6) Percentage inhibition=(1−(the chemiluminescent signal value of the test compound group at a certain test concentration−the chemiluminescent signal value of the blank control group)/(the chemiluminescent signal value of the negative control group−the chemiluminescent signal value of the blank control group))×100%.
(§7) When the percentage inhibition was between 30% and 80%, a single value or a value range of the half maximal inhibitory concentration (IC50) of the compound against the CYP enzyme was estimated based on the following equation: IC50=X×(1−percentage inhibition)/percentage inhibition, wherein X was the test concentration of the compound.

The target of data set [5] is T2, CYP2D6 (Homo sapiens, UniProt P10635).
T2 construct: purchased Promega
Briefly: Biochemical assay for CYP enzyme inhibition, P450-Glo CYP2D6 Screening System. In kind it is in vitro ADME. The following applies: estimated from percentage inhibition; read-out: IC50 (μM) CYP2D6. On the procedure: as §2
P450-Glo™ CYP2D6 Screening System, (Promega);
as §3, §4
3.2. Inhibition Against CYP2D6:
Test group: The test compounds at different concentrations were added into a microplate, and Luciferin-ME EGE (3 μM), K3PO4 (100 mM), and CYP2D6 (5 nM) were added into each well, and pre-incubated at room temperature for 10 min. Thereafter, an NADPH regeneration system was added. The mixture was reacted at 37° C. for 30 min. Finally, an equal volume of detection buffer was added and incubated at room temperature for 20 min, followed by chemiluminescence detection.
as §5
Blank control group: The experimental method for the blank control group was the same as that for the test group, except that the test compound was not added and that CYP2D6 was replaced with CYP2D6 Membrance (5 nM).
as §6, §7

The target in data set [6] is T3, CYP1A2 (Homo sapiens, UniProt P05177).
T3 construct: purchased Promega
T3 sequence (P05177 1-516): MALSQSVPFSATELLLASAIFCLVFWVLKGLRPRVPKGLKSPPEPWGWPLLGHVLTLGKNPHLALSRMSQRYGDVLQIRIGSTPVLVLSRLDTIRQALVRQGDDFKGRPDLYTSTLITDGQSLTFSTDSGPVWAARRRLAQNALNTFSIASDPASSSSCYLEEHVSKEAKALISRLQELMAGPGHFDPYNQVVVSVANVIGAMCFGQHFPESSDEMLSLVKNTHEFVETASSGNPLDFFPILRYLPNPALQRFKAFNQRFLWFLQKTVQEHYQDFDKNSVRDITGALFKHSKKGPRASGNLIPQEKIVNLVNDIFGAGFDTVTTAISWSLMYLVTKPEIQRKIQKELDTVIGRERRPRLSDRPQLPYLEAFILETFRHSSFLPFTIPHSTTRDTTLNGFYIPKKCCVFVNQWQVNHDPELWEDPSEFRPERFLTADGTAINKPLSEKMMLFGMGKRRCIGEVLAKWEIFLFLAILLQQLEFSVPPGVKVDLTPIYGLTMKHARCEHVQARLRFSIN
Kind of data set: Biochemical assay for CYP enzyme inhibition, P450-Glo CYP1A2 Screening System. Format: in vitro ADME. The following applies: estimated from percentage inhibition; read-out: IC50 (μM) CYP1A2. On the procedure:
as §2
P450-Glo™ CYP1A2 Screening System, (Promega);
as §3, §4
3.1. Inhibition Against CYP1A2:
Test group: The test compounds at different concentrations were added into a microplate, and Luciferin-ME (100 μM), K3PO4 (100 mM), and CYP1A2 (0.01 μmol/μL) were added into each well, and pre-incubated at room temperature for 10 min. Thereafter, an NADPH regeneration system was added. The mixture was reacted at room temperature for 30 min. Finally, an equal volume of detection buffer was added and incubated at room temperature for 20 min, followed by chemiluminescence detection.
as §5
Blank control group: The experimental method for the blank control group was the same as that for the test group, except that the test compound was not added and that CYP1A2 was replaced with CYP1A2 Membrance (0.01 μmol/μL).
as §6, §7

T2 sequence (P10635 whole entry): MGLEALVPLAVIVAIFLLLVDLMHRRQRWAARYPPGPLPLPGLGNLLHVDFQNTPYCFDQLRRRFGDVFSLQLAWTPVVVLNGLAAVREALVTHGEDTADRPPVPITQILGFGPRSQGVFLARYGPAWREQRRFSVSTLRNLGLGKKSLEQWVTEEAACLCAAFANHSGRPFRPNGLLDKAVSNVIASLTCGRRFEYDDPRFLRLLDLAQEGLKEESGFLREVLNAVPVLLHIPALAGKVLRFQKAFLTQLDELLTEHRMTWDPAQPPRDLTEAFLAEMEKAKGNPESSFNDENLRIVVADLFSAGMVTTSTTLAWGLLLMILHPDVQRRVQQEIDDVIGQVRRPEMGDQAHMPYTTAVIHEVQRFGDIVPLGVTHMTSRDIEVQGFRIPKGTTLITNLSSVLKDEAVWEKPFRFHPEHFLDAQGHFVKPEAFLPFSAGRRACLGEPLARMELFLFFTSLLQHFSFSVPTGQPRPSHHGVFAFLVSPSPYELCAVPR
T1 sequence (P08684 whole entry): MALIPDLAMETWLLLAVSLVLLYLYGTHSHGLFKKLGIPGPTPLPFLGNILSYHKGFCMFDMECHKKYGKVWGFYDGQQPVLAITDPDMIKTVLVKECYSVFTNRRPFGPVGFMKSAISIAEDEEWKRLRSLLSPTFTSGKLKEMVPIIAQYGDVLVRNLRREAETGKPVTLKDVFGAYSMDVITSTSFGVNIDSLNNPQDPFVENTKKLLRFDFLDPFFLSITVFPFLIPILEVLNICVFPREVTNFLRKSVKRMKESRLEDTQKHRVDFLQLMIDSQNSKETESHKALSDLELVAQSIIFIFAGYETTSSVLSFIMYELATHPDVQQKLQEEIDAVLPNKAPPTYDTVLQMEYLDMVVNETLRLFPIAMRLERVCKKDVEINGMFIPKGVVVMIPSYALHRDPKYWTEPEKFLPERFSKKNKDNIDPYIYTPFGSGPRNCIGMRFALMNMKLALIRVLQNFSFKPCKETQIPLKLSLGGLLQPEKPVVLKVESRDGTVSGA

As a reminder, the AUC(0-t) is exposure summed from dosing to a finite time, without extrapolation to infinity. The low end stands for less exposure, the high end for more exposure. The term Cmax denotes the peak of the concentration-time curve. As usually defined, the clearance is the volume of plasma or blood freed of the substance per unit of time. Read a high clearance as a high capacity for elimination. What is called half-life is the time needed for the level to fall by half in the phase considered. Lower therefore signals rapid decline. With `Cc1nc(N2CCC3(CC2)CO[C@@H](C)[C@H]3N)c(CO)nc1Sc1ccnc(N)c1Cl` [Control Compound 2], the AUC(0-t) was 696 ng·h/mL in data set [1] (IV, 1 mg/kg); 2760 ng·h/mL in data set [1] (PO, 5 mg/kg); 614 ng·h/mL in data set [2] (IV, 0.5 mg/kg); 2550 ng·h/mL in data set [2] (PO, 2.5 mg/kg); 576 ng·h/mL in data set [3] (iv, 1 mg/kg); 3870 ng·h/mL in data set [3] (po, 10 mg/kg). The Cmax in data set [1] (IV, 1 mg/kg) was determined as 215 ng/mL; in data set [1] (PO, 5 mg/kg), 363 ng/mL. In addition, the clearance amounted to 24.6 mL/min/kg in data set [1] (IV, 1 mg/kg); 13.2 mL/min/kg in data set [2] (IV, 0.5 mg/kg); 23.2 mL/min/kg in data set [3] (iv, 1 mg/kg). Moreover, the half-life in data set [2] (PO, 2.5 mg/kg) was 12.3 h; in data set [3] (po, 10 mg/kg) it was 5.08 h.
The IC50 is the point on the concentration scale where inhibition reaches its midpoint. Take `C[C@@H]1OCC2(CCN(c3ncc(Sc4ccnc(N5CC(O)C5)c4Cl)nc3CO)CC2)[C@@H]1N` [Control Compound 1]: the AUC(0-t) amounted to 1220 ng·h/mL in data set [2] (IV, 0.5 mg/kg); 3910 ng·h/mL in data set [2] (PO, 2.5 mg/kg); 2200 ng·h/mL in data set [3] (iv, 1 mg/kg); 8690 ng·h/mL in data set [3] (po, 10 mg/kg). The clearance in data set [2] (IV, 0.5 mg/kg) was found to be 7.08 mL/min/kg; in data set [3] (iv, 1 mg/kg), 7.21 mL/min/kg. In addition, the half-life in data set [2] (PO, 2.5 mg/kg) is 10.5 h; in data set [3] (po, 10 mg/kg), 4.61 h. Besides, the figures for the IC50 in data set [4], in data set [5] and in data set [6] were greater than 10 µM, 6.96 µM and greater than 10 µM, respectively.
